Measurements as given in ChEMBL document CHEMBL3044875, “Synthesis and antimicrobial activity of some bisoctahydroxanthene-1,8-dione derivatives” (2011).

What was measured:
Format in all cases: functional
Proteus vulgaris = assay: Antibacterial activity against Proteus vulgaris NRRL-B-123 at 10 ug/disk after 24 hr by disk diffusion method; settings: NRRL-B-123, 24 h, read-out: DIZ
[1] = test system: Staphylococcus epidermidis; assay: Antibacterial activity against Staphylococcus epidermidis ATCC 12228 at 10 ug/disk after 24 hr by disk diffusion method; settings: ATCC 12228, 24 h, read-out: DIZ
Pseudomonas aeruginosa = assay: Antibacterial activity against Pseudomonas aeruginosa ATCC 27853 at 10 ug/disk after 24 hr by disk-diffusion method; settings: ATCC 27853, 24 h, read-out: DIZ
Staphylococcus aureus = assay: Antibacterial activity against Staphylococcus aureus ATCC 25923 at 10 ug/disc after 24 hr by disk diffusion method; settings: ATCC 25923, 24 h, read-out: DIZ
Nocardia = assay: Antibacterial activity against Nocardia canis at 10 ug/disk after 24 hr by disk diffusion method; settings: read-out: DIZ
Escherichia coli = assay: Antibacterial activity against Escherichia coli ATCC 25922 at 10 ug/disk after 24 hr by disk-diffusion method; settings: ATCC 25922, 24 h, read-out: DIZ
Bacillus cereus = assay: Antibacterial activity against Bacillus cereus NRRL 3711 at 10 ug/disk after 24 hr by disk diffusion method; settings: NRRL 3711, 24 h, read-out: DIZ

CN(C)[C@@H]1C(O)=C(C(N)=O)C(=O)[C@@]2(O)C(O)=C3C(=O)c4c(O)cccc4[C@@](C)(O)[C@H]3C[C@@H]12 [TETRACYCLINE]
zone of inhibition at 10 µg/disc (Proteus vulgaris): 15 mm
zone of inhibition at 10 µg/disc [1]: 15 mm
zone of inhibition at 10 µg/disc (Pseudomonas aeruginosa): 13 mm
zone of inhibition at 10 µg/disc (Staphylococcus aureus): 40 mm
zone of inhibition at 10 µg/disc (Nocardia): 14 mm
zone of inhibition at 10 µg/disc (Escherichia coli): 25 mm
zone of inhibition at 10 µg/disc (Bacillus cereus): 28 mm
